Each structure is given as a SMILES string.

Experimental findings from patent US8431593B2, “Heteroaryl amide derivatives” (H. Lundbeck A/S, priority 2006, dated 2013) are described below.

The first assay addresses T1, P2X7 receptor (Homo sapiens, UniProt Q99572).
T1 construct: host or cells: SH-SY5Y
T1 sequence (Q99572 1-595): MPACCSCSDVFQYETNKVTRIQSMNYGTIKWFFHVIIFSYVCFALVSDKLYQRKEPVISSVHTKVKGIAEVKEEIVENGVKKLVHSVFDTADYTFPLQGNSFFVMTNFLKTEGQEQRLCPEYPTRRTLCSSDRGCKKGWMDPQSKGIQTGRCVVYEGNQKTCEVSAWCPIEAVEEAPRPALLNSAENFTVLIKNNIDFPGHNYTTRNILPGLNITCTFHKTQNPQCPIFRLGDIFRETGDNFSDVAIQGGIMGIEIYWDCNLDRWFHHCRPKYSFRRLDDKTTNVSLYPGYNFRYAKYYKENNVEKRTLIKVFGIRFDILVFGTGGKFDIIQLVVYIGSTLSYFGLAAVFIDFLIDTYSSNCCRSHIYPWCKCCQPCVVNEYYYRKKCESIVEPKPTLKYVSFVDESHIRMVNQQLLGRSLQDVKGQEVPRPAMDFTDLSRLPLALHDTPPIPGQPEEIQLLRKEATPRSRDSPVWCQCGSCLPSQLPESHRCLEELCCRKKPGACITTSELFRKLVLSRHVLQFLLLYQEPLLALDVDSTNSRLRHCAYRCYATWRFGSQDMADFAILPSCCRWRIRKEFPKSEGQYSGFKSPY
Description: P2X7 calcium mobilization assay, high throughput, antagonist activity (Example 4A). Particulars: 50% decrease in the fluorescence response of cells exposed to 80 μM 2′(3′)-O-(4-benzoyl-benzoyl)adenosine 5′-triphosphate; Example 4A; read-out: IC50. The format is cell-based. The procedure, abridged: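 FLIPR^TETRA calcium read-out: maximum RFU per well minus average no-agonist control, with agonist wells giving the average positive maximum. Cells seeded at 100,000/well one day ahead, dye-loaded 1 h, rinsed, then exposed to compound for 1 h at room temperature.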
As a reminder, the IC50 is the point on the concentration scale where inhibition reaches its midpoint. Regarding `CC1(C)[C@@H]2CC[C@@H](CNC(=O)c3cccc4nc(CC(=O)N5CCC[C@@H]5CN)cn34)[C@H]1C2` [Compound 584, 2-{2-[(2R)-2-(aminomethyl)pyrrolidin-1-yl]-2-oxoethyl}-N-{[(1R,2R,5R)-6,6-dimethylbicyclo [3.1.1]hept-2-yl]methyl}imidazo [1,2-a]pyridine-5-carboxamide], the half-maximal inhibitory concentration (IC50) was less than 2000 nM.
For the compound `CC1(C)[C@H]2CC[C@@H](CNC(=O)c3cccc4nc(C(=O)N5CCC(F)CC5)cn34)[C@@H]1C2` [Compound 494, N-{[(1S,2R,5S)-6,6-dimethylbicyclo[3.1.1]hept-2-yl]methyl}-2-[(4-fluoropiperidin-1-yl)carbonyl]imidazo[1,2-a]pyridine-5-carboxamide], the IC50 was less than 2000 nM.
Same read-out and setting: then `CC(C)CC(CNC(=O)c1cccc2nc(CCO)cn12)c1cccnc1` (stereo not shown) [Compound 545, 2-(2-hydroxyethyl)-N-(4-methyl-2-pyridin-3-ylpentyl)imidazo[1,2-a]pyridine-5-carboxamide], with less than 2000 nM.

Staying with this assay, now noted: 50% decrease in the fluorescence response of cells exposed to 80 μM of 2′(3′)-O-(4-benzoyl-benzoyl)adenosine 5′-triphosphate; Example 4A; read-out: IC50.
With `COCCN(C(=O)c1cn2c(C(=O)NCC34CC5CC(CC(C5)C3)C4)cccc2n1)C1CCNCC1` [Compound 618, 5-N-(adamantan-1-ylmethyl)-2-N-(2-methoxyethyl)-2-N-piperidin-4-yl imidazo[1,2-a]pyridine-2,5-dicarboxamide], the half-maximal inhibitory concentration (IC50) was less than 2000 nM.
Same read-out and setting: then `NC1CCCN(C(=O)CCc2cn3c(C(=O)NCC45CC6CC(CC(C6)C4)C5)cccc3n2)C1` (stereo not shown) [Compound 780, N-(adamantan-1-ylmethyl)-2-[3-(3-aminopiperidin-1-yl)-3-oxopropyl] imidazo[1,2-a] pyridine-5-carboxamide], with less than 2000 nM; and `NC[C@@H]1CCCN1C(=O)c1cn2c(C(=O)NCC34CC5CC(CC(C5)C3)C4)cccc2n1` [Compound 628, N-(adamantan-1-ylmethyl)-2-{[(2S)-2-(aminomethyl)pyrrolidin-1-yl]carbonyl}imidazo[1,2-a]pyridine-5-carboxamide], with less than 2000 nM.
Still for that read-out and setting: then `CC(C)CC(CNC(=O)c1cccc2nc(Cn3ccccc3=O)cn12)c1cccnc1` (stereo not shown) [Compound 729, N-(4-methyl-2-pyridin-3-ylpentyl)-2-[(2-oxopyridin-1(2H)-yl)methyl] imidazo[1,2-a]pyridine-5-carboxamide], with less than 2000 nM.

Staying with this assay, now noted: 50% decrease in the fluorescence response of cells exposed to 80 μM of 2′(3′)-O-(4-benzoyl-benzoyl)adenosine 5′-triphosphate; determined as in Example 4A; read-out: IC50.
For the compound `Cc1ccc(C2(CNC(=O)c3cccc4nc(CN5CC[C@@H](N)C5)cn34)CCCCC2)cn1` [Compound 824, 2-{[(3R)-3-aminopyrrolidin-1-yl]methyl}-N-{[1-(6-methylpyridin-3-yl)cyclohexyl]methyl} imidazo[1,2-a] pyridine-5-carboxamide], the 50% inhibitory concentration (IC50) is less than 2000 nM.
The same measure, in the same setting: then `O=C(NCC12CC3CC(CC(C3)C1)C2)c1cccc2nc(CC3(C(=O)O)CCOCC3)cn12` [Compound 847, 4-({5-[(adamantan-1-ylmethyl)carbamoyl]imidazo [1,2-a]pyridin-2-yl}methyl) tetrahydro-2H-pyran-4-carboxylic acid], with less than 2000 nM.

The same assay, now with this note: P2X7 calcium mobilization, Example 4A; 50% decrease in the fluorescence response of cells exposed to 80 μM of (2′(3′)-O-(4-benzoyl-benzoyl)adenosine 5′-triphosephate); read-out: IC50.
For the compound `CC(C)CC(CNC(=O)c1cccc2nc(C(F)(F)F)cn12)c1ccc(C(F)(F)F)cc1` (stereo not shown) [Compound 1025, N-{4-methyl-2-[4-(trifluoromethyl)phenyl]pentyl}-2-(trifluoromethyl) imidazo [1,2-a]pyridine-5-carboxamide], the IC50 was less than 2000 nM.
The same measure, in the same setting: as for `O=C(NCC1(c2ccc(Cl)cc2)CCCCC1)c1cccc2nc(CN3CCCC3)cn12` [Compound 1047, N-{[1-(4-chlorophenyl)cyclohexyl]methyl}-2-(pyrrolidin-1-ylmethyl) imidazo[1,2-a]pyridine-5-carboxamide], the figure is less than 2000 nM.
In the case of `CC(=O)OC(C)OC(=O)N[C@@H]1CCCN(C(=O)Cc2cn3c(C(=O)NCC45CC6CC(CC(C6)C4)C5)cccc3n2)C1` (stereo partly drawn) [Compound 1060, 1-({[(3R)-1-({5-[(adamantan-1-ylmethyl)carbamoyl]imidazo[1,2-a]pyridin-2-yl}acetyl)piperidin-3-yl]carbamoyl}oxy)ethyl acetate], the IC50 was less than 2000 nM.

Staying with this assay, now noted: SH-SY5Y cells; 50% decrease in fluorescence response to 80 μM BzATP; read-out: IC50.
Turning to `CCC(=O)NCCc1cn2c(C(=O)NCC34CC5CC(CC(C5)C3)C4)cccc2n1` [Compound 201, N-(adamantan-1-ylmethyl)-2-[2-(propionylamino)eth-yl]imidazo[1,2-a]pyridine-5-carboxamide], the half-inhibitory concentration (IC50) was less than 2000 nM.
For the compound `CCS(=O)(=O)NCCc1cn2c(C(=O)NCC34CC5CC(CC(C5)C3)C4)cccc2n1` [Compound 194, N-(adamantan-1-ylmethyl)-2-{2-[(ethylsulfonyl)amino]eth-yl}imidazo[1,2-a]pyridine-5-carboxamide], the IC50 was less than 2000 nM.
Same read-out and setting: then `COC1CCCN(C(=O)Cc2cn3c(C(=O)NCC45CC6CC(CC(C6)C4)C5)cccc3n2)C1` (stereo not shown) [Compound 47, N-(adamantan-1-ylmethyl)-2-[2-(3-methoxypiperidin-1-yl)-2-oxoethyl]imidazo[1,2-a]pyridine-5-carboxamide], with less than 2000 nM; and `NC(=O)CCNC(=O)c1cn2c(C(=O)NCC34CC5CC(CC(C5)C3)C4)cccc2n1` [Compound 77, 5-N-(adamantan-1-ylmethyl)--(3-amino-3-oxopropyl)imidazo[1,2-a]pyridine-2,5-dicarboxamide], with less than 2000 nM; and `CC(C)CC(CNC(=O)c1cccc2nc(CCl)cn12)c1ccccc1` (stereo not shown) [Compound 138, 2-(chloromethyl)-N-(4-methyl-2-phenylpentyl)imidazo[1,2-a]pyridine-5-carboxamide], with less than 2000 nM.
Same read-out and setting: as for `CCC(COC)NC(=O)Cc1cn2c(C(=O)NCC34CC5CC(CC(C5)C3)C4)cccc2n1` (stereo not shown) [Compound 160, N-(adamantan-1-ylmethyl)-2-(2-{[1-(methoxymethyl)pro-pyl]amino}-2-oxoethyl)imidazo[1,2-a]pyridine-5-carboxamide], the figure is less than 2000 nM; as for `O=C(NCC12CC3CC(CC(C3)C1)C2)c1cccc2nc(Cn3ccccc3=O)cn12` [Compound 211, N-(adamantan-1-ylmethyl)-2-[(2-oxopyridin-1(2H)-yl)methyl]imidazo[1,2-a]pyridine-5-carboxamide], less than 2000 nM.

Still in this assay, the particulars now being: fluorescence response of cells exposed to 80 μM 2′(3′)-O-(4-benzoyl-benzoyl)adenosine 5′-triphosphate; Example 4A; read-out: IC50.
Consider `Cc1nn(Cc2cn3c(C(=O)NCC45CC6CC(CC(C6)C4)C5)cccc3n2)cc1C(=O)O` [Compound 275, 1-({5-[(adamantan-1-ylmethyl)carbamoyl]imidazo [1,2-a]pyridin-2-yl}methyl)-3-methyl-1H-pyrazole-4-carboxylic acid], for which the concentration for half-maximal inhibition (IC50) was less than 2000 nM.
Still for that read-out and setting: then `CC(C)CC(CNC(=O)c1cccc2nc(CC(=O)NCC(F)(F)F)cn12)c1ccccc1` (stereo not shown) [Compound 229, N-(4-methyl-2-phenylpentyl)-2-{2-oxo-2-[(2,2,2-trifluoroethyl)amino]ethyl}imidazo[1,2-a]pyridine-5-carboxamide], with less than 2000 nM; and `O=C(O)CCSCc1cn2c(C(=O)NCC34CC5CC(CC(C5)C3)C4)cccc2n1` [Compound 342, 3-[({5-[(adamantan-1-ylmethyl)carbamoyl]imidazo[1,2-a]pyridin-2-yl}methyl)thio] propanoic acid], with less than 2000 nM.
Regarding `CCOC(=O)C(C)c1cn2c(C(=O)NCC34CC5CC(CC(C5)C3)C4)cccc2n1` (stereo not shown) [Compound 338, ethyl 2-{5-[(adamantan-1-ylmethyl)carbamoyl]imidazo[1,2-a]pyridin-2-yl}propanoate], the 50% inhibitory concentration (IC50) is less than 2000 nM.
Still for that read-out and setting: as for `CN(CCNS(C)(=O)=O)C(=O)c1cn2c(NC(=O)CC34CC5CC(CC(C5)C3)C4)cccc2n1` [Compound 404, 5-[(adamantan-1-ylacetyl)amino]-N-methyl-N-{2-[(methylsulfonyl)amino]ethyl} imidazo[1,2-a] pyridine-2-carboxamide], the figure is less than 2000 nM; as for `CC(C)CC(CNC(=O)c1cccc2nc(CC(=O)NCC3CC3)cn12)c1ccccc1` (stereo not shown) [Compound 222, 2-{2-[(cyclopropylmethyl)amino]-2-oxoethyl}-N-(4-methyl-2-phenylpentyl) imidazo [1,2-a]pyridine-5-carboxamide], less than 2000 nM.
The same measure, in the same setting: then `CCOC(=O)c1cn2c(C(=O)NC(C)C34CC5CC(CC(C5)C3)C4)cccc2n1` (stereo not shown) [Compound 280, ethyl 5-[(1-adamantan-1-ylethyl)carbamoyl] imidazo[1,2-a] pyridine-2-carboxylate], with less than 2000 nM; and `O=C(CC12CC3CC(CC(C3)C1)C2)Nc1cccc2nc(C(=O)N3CCOCC3)cn12` [Compound 364, 2-adamantan-1-yl-N-[2-(morpholin-4-ylcarbonyl)imidazo[1,2-a]pyridin-5-yl]acetamide], with less than 2000 nM.
Same read-out and setting: as for `O=C(NCCC1CC2CCC1C2)c1cccc2nc(CN3CCOCC3)cn12` (stereo not shown) [Compound 344, N-(2-bicyclo[2.2.1]hept-2-ylethyl)-2-(morpholin-4-ylmethyl)imidazo[1,2-a]pyridine-5-carboxamide], the figure is less than 2000 nM.
